Patent publication US7498349B2, “Biaryl compounds having anti-infective activity” (Genesoft Pharmaceuticals, Inc., priority 2002, dated 2009)

Experiments:
[1] = system: B. cereus ATCC 11778; experiment: MIC, NCCLS broth microdilution assay; assay type: cell-based, Bacillus cereus; settings: B. cereus ATCC 11778
[2] = system: S. pneumoniae ATCC 49619; experiment: MIC, NCCLS broth microdilution assay; assay type: cell-based, Streptococcus pneumoniae; settings: S. pneumoniae ATCC 49619
[3] = system: S. aureus ATCC 13709; experiment: MIC, NCCLS broth microdilution assay; assay type: cell-based, Staphylococcus aureus; settings: S. aureus ATCC 13709, methicillin sensitive strain (MSSA)
[4] = system: S. aureus ATCC 27660; experiment: MIC, NCCLS broth microdilution assay; assay type: cell-based, Staphylococcus aureus; settings: S. aureus ATCC 27660, methicillin resistant strain (MRSA)
Text: In vitro biological activity data were collected for a variety of microorganisms, including Bacillus cereus (ATCC 11778), Staphylococcus aureus (ATCC 33591; ATCC 27660, a methicillin resistant strain (MRSA); ATCC 13709, a methicillin sensitive strain (MSSA)), Escherichia coli (ATCC 25922), Enterococcus faecalis (ATCC 29212), Streptococcus pneumoniae (ATCC 49619; ATCC 51422, a penicillin resistant strain (PRSP)), Enterococcus faecium (ATCC 51559, a vancomycin resistant strain (VRE)), and Staphylococcus epidermidis (ATCC 12228).
The minimal inhibition concentration (MIC) of these compounds was determined using the National Committee for Clinical Laboratory Standards (NCCLS) broth microdilution assay in microtiter plates, as set forth in: (1) the guidelines of the National Committee for Clinical Laboratory Standards (NCCLS) Document M7-A4 (NCCLS, 1997); (2) the guidelines of the National Committee for Clinical Laboratory Standards (NCCLS) Document M11-A4 (NCCLS, 1997); and (3) the guidelines and reference method of the National Committee for Clinical Laboratory Standards (NCCLS) Document M27 -T (NCCLS, 1995).

[5] = system: C. albicans ATCC 38247; experiment: MIC, antifungal assay; assay type: cell-based, Candida albicans; settings: C. albicans ATCC 38247
[6] = system: E. faecalis ATCC 29212; experiment: MIC, NCCLS broth microdilution assay; assay type: cell-based, Enterococcus faecalis; settings: E. faecalis ATCC 29212
[7] = system: E. coli ATCC 25922; experiment: MIC, NCCLS broth microdilution assay; assay type: cell-based, Escherichia coli; settings: E. coli ATCC 25922
[8] = system: S. aureus ATCC 33591; experiment: MIC, NCCLS broth microdilution assay; assay type: cell-based, Staphylococcus aureus; settings: S. aureus ATCC 33591

Structure (SMILES) | Minimum Inhibitory Concentration (MIC) [1] | Minimum Inhibitory Concentration (MIC) [2] | Minimum Inhibitory Concentration (MIC) [3] | Minimum Inhibitory Concentration (MIC) [4] | Minimum Inhibitory Concentration (MIC) [5] | Minimum Inhibitory Concentration (MIC) [6] | Minimum Inhibitory Concentration (MIC) [7] | Minimum Inhibitory Concentration (MIC) [8]
NCCN1CCN(c2ncccc2C(=O)Nc2ccc(-c3cc4ccccc4o3)cc2)CC1 [Compound A-17] | + (12 ≦ MIC ≦ 32) | + (12 ≦ MIC ≦ 32) | ++ (4 < MIC < 12) | + (12 ≦ MIC ≦ 32) | + (12 ≦ MIC ≦ 32) | + (12 ≦ MIC ≦ 32) | >32 µg/mL | –
O=C(Nc1ccc(-c2cc3ccccc3o2)cc1)c1cccnc1N1CCNCC1 [Compound A-20] | + (12 ≦ MIC ≦ 32) | + (12 ≦ MIC ≦ 32) | ++ (4 < MIC < 12) | ++ (4 < MIC < 12) | ++ (4 < MIC < 12) | + (12 ≦ MIC ≦ 32) | + (12 ≦ MIC ≦ 32) | –
NCCOCCOCCNc1ncccc1C(=O)Nc1ccc(-c2cc3ccccc3o2)cc1 [Compound A-22] | ++ (4 < MIC < 12) | + (12 ≦ MIC ≦ 32) | ++ (4 < MIC < 12) | ++ (4 < MIC < 12) | +++ (MIC ≦ 4) | ++ (4 < MIC < 12) | >32 µg/mL | –
CCN(CC)CCCNc1cc(Cl)ccc1C(=O)Nc1ccc(-c2cc3ccccc3o2)cc1 [Compound A-23] | +++ (MIC ≦ 4) | + (12 ≦ MIC ≦ 32) | +++ (MIC ≦ 4) | +++ (MIC ≦ 4) | + (12 ≦ MIC ≦ 32) | +++ (MIC ≦ 4) | >32 µg/mL | +++ (MIC ≦ 4)
NCCOCCOCCNc1cc(Cl)ccc1C(=O)Nc1ccc(-c2cc3ccccc3o2)cc1 [Compound A-24] | >32 µg/mL | >32 µg/mL | + (12 ≦ MIC ≦ 32) | + (12 ≦ MIC ≦ 32) | >32 µg/mL | + (12 ≦ MIC ≦ 32) | >32 µg/mL | + (12 ≦ MIC ≦ 32)
O=C(Nc1ccc(-c2cc3ccccc3o2)cc1)c1ccc(Cl)cc1NCCN1CCCC1 [Compound A-25] | >32 µg/mL | >32 µg/mL | + (12 ≦ MIC ≦ 32) | + (12 ≦ MIC ≦ 32) | >32 µg/mL | + (12 ≦ MIC ≦ 32) | >32 µg/mL | + (12 ≦ MIC ≦ 32)
O=C(Nc1ccc(-c2cc3ccccc3o2)cc1)c1ccc(Cl)cc1NCCN1CCNCC1 [Compound A-26] | + (12 ≦ MIC ≦ 32) | + (12 ≦ MIC ≦ 32) | +++ (MIC ≦ 4) | ++ (4 < MIC < 12) | >32 µg/mL | ++ (4 < MIC < 12) | >32 µg/mL | ++ (4 < MIC < 12)
Cc1cc(NC(=O)c2cccnc2NCCN2CCCCC2)ccc1-c1cc2ccccc2o1 [Compound A-27] | ++ (4 < MIC < 12) | + (12 ≦ MIC ≦ 32) | +++ (MIC ≦ 4) | +++ (MIC ≦ 4) | ++ (4 < MIC < 12) | +++ (MIC ≦ 4) | >32 µg/mL | +++ (MIC ≦ 4)
Cc1ccc2nc(-c3ccc(NC(=O)c4nsc(NCCCN(C)CCCN)c4Cl)cc3)sc2c1 [Compound A-51] | +++ (MIC ≦ 4) | +++ (MIC ≦ 4) | +++ (MIC ≦ 4) | +++ (MIC ≦ 4) | +++ (MIC ≦ 4) | +++ (MIC ≦ 4) | >32 µg/mL | –
Cc1ccc2nc(-c3ccc(NC(=O)c4nsc(NCCN)c4Cl)cc3)sc2c1 [Compound A-52] | + (12 ≦ MIC ≦ 32) | >32 µg/mL | +++ (MIC ≦ 4) | – | >32 µg/mL | +++ (MIC ≦ 4) | >32 µg/mL | +++ (MIC ≦ 4)
